Laboratory results as given in US20170008888A1 (KYORIN PHARMACEUTICAL CO., LTD., priority 2014, published 2017).
pIC50: −log10 of the molar value.

Assays:
Format in all cases: binding
[1] = biological target: T1, ERK5 (Homo sapiens, UniProt Q13164); assay: Probe-based (AX9989 acyl phosphate ATP probe) kinase profiling in Jurkat lysate: ERK5; conditions: for pIC50: calculated from percent inhibition of AX9989 labeling and the screening concentration, Jurkat lysate; for inhibition at 1 µM: screening concentration 1.0 μM; for inhibition at 1 µM / inhibition at 0.1 µM: read-out: Kinase inhibition % at indicated screening concentration: ERK5; for inhibition at 0.1 µM: screening concentration 0.1 μM
T1 construct: screened for activity against several kinases in Jurkat cells; endogenous in cells; host or cells: Jurkat cell lysate
Outline: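 Gel-filtered Jurkat lysate (5 mg/ml, 20 mM MnCl2) preincubated 15 min at room temperature with compound, then labelled with 5 μM AX9989 acyl phosphate ATP probe. Probe-labelled ERK5 active-site peptides quantified by LC/MS after trypsin digestion and streptavidin capture; IC50 calculated from percent inhibition at the screening concentration.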

[2] = biological target: T2, AurA (Homo sapiens, UniProt O14965); assay: Probe-based (AX9989) kinase profiling in Jurkat lysate: AurA; conditions: read-out: Kinase inhibition % at indicated screening concentration: AurA; for inhibition at 1 µM: screening concentration 1.0 μM; for inhibition at 0.1 µM: screening concentration 0.1 μM
T2 construct: screened for activity against several kinases in Jurkat cells; endogenous in cells; host or cells: Jurkat cell lysate
T2 sequence (O14965 1-403): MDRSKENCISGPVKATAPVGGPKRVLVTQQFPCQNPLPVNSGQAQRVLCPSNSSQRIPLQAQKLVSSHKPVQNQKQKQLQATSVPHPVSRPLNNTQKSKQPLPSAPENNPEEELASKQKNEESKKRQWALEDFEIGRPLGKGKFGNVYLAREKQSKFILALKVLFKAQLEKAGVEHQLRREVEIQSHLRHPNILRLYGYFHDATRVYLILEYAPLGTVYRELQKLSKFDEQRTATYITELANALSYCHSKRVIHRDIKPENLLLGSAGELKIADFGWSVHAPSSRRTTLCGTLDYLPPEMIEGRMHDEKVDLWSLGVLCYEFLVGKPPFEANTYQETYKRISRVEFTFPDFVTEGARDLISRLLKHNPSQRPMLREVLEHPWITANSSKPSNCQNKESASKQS
Outline: (§1)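 Compounds were pre-incubated for 15 min at room temperature with gel-filtered Jurkat cell lysate supplemented with 20 mM MnCl2, after which the acyl phosphate ATP probe AX9989 was added at 5 μM final. Labeled active-site peptides were enriched after tryptic digestion and measured by LC/MS, with percent inhibition taken relative to samples without compound.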

[3] = test system: AurB or AurC; assay: Probe-based (AX9989) kinase profiling in Jurkat lysate: AurB or AurC
Outline: as §1

[4] = biological target: T3, JAK1 (Homo sapiens, UniProt P23458); assay: Probe-based (AX9989) kinase profiling in Jurkat lysate: JAK1; conditions: read-out: Kinase inhibition % at indicated screening concentration: JAK1; for inhibition at 1 µM: screening concentration 1.0 μM; for inhibition at 0.1 µM: screening concentration 0.1 μM
T3 construct: screened for activity against several kinases in Jurkat cells; endogenous in cells; host or cells: Jurkat cell lysate
Outline: as §1

[5] = test system: AMPKa1 or AMPKa2; assay: Probe-based (AX9989) kinase profiling in Jurkat lysate: AMPKa1 or AMPKa2
Outline: as §1

[6] = biological target: T4, TAO2 (Homo sapiens, UniProt Q9UL54); assay: Probe-based (AX9989) kinase profiling in Jurkat lysate: TAO2; conditions: read-out: Kinase inhibition % at indicated screening concentration: TAO2; for inhibition at 1 µM: screening concentration 1.0 μM; for inhibition at 0.1 µM: screening concentration 0.1 μM
T4 construct: screened for activity against several kinases in Jurkat cells; endogenous in cells; host or cells: Jurkat cell lysate
T4 sequence (Q9UL54 1-1235): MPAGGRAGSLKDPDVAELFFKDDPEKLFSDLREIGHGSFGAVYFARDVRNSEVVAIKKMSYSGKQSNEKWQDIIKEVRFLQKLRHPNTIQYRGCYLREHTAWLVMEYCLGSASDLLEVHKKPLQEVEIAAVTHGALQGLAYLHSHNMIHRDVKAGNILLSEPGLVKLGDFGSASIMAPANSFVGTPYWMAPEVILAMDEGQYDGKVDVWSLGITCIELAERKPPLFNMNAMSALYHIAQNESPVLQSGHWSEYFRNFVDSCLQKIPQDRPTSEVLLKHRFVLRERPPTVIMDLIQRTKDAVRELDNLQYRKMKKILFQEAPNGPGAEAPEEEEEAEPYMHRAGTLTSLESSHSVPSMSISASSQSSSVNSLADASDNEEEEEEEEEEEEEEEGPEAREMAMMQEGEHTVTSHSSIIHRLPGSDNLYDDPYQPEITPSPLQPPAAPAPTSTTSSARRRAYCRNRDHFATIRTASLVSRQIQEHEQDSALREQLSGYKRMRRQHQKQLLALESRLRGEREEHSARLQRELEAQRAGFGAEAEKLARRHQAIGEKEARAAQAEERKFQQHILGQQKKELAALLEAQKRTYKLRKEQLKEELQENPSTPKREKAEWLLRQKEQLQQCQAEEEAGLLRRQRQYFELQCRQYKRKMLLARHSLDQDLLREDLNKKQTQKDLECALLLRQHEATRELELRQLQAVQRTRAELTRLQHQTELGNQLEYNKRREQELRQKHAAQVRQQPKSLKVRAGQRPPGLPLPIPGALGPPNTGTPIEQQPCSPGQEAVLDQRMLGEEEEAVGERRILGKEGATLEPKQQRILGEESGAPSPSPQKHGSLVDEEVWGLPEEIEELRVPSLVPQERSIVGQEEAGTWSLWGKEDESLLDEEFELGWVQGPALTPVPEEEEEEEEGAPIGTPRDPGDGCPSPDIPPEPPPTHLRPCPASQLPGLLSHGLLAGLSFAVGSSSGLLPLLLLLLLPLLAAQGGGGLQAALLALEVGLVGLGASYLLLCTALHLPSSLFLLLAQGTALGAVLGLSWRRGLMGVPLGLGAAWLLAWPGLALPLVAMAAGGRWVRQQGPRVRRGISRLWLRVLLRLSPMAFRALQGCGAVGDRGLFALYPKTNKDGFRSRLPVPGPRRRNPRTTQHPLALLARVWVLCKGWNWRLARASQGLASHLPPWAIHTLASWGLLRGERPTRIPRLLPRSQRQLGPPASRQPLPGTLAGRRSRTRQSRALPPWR
Outline: as §1

[7] = biological target: T5, ACK (Homo sapiens, UniProt Q07912); assay: Probe-based (AX9989) kinase profiling in Jurkat lysate: ACK; conditions: read-out: Kinase inhibition % at indicated screening concentration: ACK; for inhibition at 1 µM: screening concentration 1.0 μM; for inhibition at 0.1 µM: screening concentration 0.1 μM
T5 construct: screened for activity against several kinases in Jurkat cells; endogenous in cells; host or cells: Jurkat cell lysate
Outline: as §1

[8] = test system: ABL or ARG; assay: Probe-based (AX9989) kinase profiling in Jurkat lysate: ABL or ARG
Outline: as §1

[9] = biological target: T6, BRD4 bromodomain domain I [BRD4(1)] (Homo sapiens, UniProt O60885); assay: BRD4 bromodomain domain 1 inhibition assay (TR-FRET); conditions: screening concentration 10 μM
T6 construct: BRD4 bromodomain domain I [BRD4(1)]; purchased Cayman Chemicals
Procedure: The inhibitory activity of test compounds on the bromodomain, BRD4 bromodomain domain I [BRD4(1)], were determined via TR-FRET after a slight modification of the manufacturer's protocol (Cayman Chemicals, Ann Arbor, Mich.). Briefly, compounds were diluted to a 20× ([…]) concentration in DMSO. 100 nL of 20× compounds were then dry stamped into triplicate wells of black, low volume 384 well plates (Aurora Biotechnologies, Carlsbad, Calif.) using the Mosquito liquid handler (TPP Labtech, Melbourn, UK). 20× compounds were then diluted to a 4× (40 μM) concentration in Assay Buffer to result in 2% DMSO content. […] JQ1 at 10 μM or 0.5% DMSO final concentrations were used as the positive and negative controls, respectively, to set the assay window. The fluorescence was read in a time-resolved format on the Biotec Synergy 2 plate reader by exciting the signal at 340 nm and reading emissions at 620 and 670, using a 100 μs delay and 200 μs read window. […] Briefly, TR-FRET ratio values were normalized to the average TR-FRET ratio value given by 10 μM JQ1. […]

T3 sequence (P23458 whole entry): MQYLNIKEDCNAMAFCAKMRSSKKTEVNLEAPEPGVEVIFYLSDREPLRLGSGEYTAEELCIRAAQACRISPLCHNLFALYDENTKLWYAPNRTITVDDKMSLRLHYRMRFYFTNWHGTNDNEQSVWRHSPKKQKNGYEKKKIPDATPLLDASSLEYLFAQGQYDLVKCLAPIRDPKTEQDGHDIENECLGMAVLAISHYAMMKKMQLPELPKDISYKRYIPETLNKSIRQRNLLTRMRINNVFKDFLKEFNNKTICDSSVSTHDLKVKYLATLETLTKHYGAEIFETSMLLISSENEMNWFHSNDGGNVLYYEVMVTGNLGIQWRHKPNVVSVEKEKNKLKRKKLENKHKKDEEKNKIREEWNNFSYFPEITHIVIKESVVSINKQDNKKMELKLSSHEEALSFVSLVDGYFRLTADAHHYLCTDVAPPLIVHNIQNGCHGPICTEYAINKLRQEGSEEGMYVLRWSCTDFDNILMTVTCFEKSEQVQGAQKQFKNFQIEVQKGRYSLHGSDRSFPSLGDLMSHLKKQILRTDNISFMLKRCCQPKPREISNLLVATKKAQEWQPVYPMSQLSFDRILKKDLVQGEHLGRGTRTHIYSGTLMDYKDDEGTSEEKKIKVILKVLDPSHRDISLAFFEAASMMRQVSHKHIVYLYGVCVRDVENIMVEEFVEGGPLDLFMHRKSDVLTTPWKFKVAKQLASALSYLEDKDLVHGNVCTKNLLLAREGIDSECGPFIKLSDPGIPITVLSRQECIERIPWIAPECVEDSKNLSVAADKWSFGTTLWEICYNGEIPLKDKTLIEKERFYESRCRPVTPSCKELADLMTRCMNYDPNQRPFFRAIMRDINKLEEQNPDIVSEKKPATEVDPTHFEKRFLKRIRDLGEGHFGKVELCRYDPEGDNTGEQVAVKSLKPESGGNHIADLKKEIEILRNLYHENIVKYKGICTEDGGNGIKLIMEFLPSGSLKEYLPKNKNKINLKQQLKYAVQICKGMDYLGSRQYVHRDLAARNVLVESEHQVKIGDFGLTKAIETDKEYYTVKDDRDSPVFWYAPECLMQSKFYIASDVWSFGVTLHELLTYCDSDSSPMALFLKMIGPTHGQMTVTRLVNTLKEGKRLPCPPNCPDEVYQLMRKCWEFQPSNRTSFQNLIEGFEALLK
T1 sequence (Q13164 whole entry): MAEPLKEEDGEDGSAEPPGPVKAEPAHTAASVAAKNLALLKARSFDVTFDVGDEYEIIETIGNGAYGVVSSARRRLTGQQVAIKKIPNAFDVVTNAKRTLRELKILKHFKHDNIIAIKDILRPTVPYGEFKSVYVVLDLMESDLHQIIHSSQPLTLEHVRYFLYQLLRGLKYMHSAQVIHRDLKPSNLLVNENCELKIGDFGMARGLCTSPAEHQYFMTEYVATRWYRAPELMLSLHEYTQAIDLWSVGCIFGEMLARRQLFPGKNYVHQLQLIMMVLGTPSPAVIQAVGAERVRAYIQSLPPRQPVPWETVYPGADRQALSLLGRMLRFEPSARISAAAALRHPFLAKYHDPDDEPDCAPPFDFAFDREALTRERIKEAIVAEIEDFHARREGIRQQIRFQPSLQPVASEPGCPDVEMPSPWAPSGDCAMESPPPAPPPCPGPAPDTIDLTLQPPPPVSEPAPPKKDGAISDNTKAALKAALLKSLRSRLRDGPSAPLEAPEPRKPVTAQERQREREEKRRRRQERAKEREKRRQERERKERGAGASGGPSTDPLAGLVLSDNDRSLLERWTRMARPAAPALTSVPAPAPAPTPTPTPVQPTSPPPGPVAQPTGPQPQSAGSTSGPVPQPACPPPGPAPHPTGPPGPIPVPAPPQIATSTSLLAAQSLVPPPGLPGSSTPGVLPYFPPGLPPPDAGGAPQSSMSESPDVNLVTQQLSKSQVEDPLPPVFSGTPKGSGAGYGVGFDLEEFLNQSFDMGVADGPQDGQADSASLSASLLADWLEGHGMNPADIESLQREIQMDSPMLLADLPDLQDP
T5 sequence (Q07912 whole entry): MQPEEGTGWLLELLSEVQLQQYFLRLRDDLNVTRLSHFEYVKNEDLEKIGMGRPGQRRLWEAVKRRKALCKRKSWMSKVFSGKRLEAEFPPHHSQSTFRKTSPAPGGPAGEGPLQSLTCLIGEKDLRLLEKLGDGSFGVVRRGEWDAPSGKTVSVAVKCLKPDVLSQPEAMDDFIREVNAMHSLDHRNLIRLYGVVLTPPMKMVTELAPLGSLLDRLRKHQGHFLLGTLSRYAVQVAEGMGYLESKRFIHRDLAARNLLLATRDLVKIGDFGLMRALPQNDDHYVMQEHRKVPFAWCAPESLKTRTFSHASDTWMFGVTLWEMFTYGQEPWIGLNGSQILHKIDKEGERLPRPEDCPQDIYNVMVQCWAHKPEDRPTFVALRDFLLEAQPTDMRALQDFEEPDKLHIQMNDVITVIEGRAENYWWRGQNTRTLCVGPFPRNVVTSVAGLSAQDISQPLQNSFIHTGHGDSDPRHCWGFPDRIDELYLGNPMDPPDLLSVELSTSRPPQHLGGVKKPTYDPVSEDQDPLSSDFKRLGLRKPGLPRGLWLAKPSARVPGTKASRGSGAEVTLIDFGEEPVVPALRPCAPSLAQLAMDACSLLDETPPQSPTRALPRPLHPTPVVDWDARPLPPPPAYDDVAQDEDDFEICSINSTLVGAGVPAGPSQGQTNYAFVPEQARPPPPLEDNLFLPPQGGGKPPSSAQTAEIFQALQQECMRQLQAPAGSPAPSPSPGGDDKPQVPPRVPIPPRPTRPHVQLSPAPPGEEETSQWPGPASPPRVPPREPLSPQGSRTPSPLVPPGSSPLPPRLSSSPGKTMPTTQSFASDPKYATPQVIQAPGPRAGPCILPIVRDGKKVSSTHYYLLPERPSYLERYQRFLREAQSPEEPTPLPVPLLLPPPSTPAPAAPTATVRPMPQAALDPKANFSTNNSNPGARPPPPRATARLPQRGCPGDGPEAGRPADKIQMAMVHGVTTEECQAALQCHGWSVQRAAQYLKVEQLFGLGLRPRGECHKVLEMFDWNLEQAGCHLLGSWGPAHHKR

Row | Structure (SMILES) | pIC50 [1] | inhibition at 1 µM [1] [%] | inhibition at 1 µM [2] [%] | Kinase inhibition % at indicated screening concentration: AurB or AurC ([3]; screening concentration 1.0 μM) | inhibition at 1 µM [4] [%] | Kinase inhibition % at indicated screening concentration: AMPKa1 or AMPKa2 ([5]; screening concentration 1.0 μM) | inhibition at 1 µM [6] [%] | inhibition at 1 µM [7] [%] | Kinase inhibition % at indicated screening concentration: ABL or ARG ([8]; screening concentration 1.0 μM) | inhibition at 10 µM [9] [%] | inhibition at 0.1 µM [1] [%] | inhibition at 0.1 µM [2] [%] | Kinase inhibition % at indicated screening concentration: AurB or AurC ([3]; screening concentration 0.1 μM) | inhibition at 0.1 µM [4] [%] | Kinase inhibition % at indicated screening concentration: AMPKa1 or AMPKa2 ([5]; screening concentration 0.1 μM) | inhibition at 0.1 µM [6] [%] | inhibition at 0.1 µM [7] [%] | Kinase inhibition % at indicated screening concentration: ABL or ARG ([8]; screening concentration 0.1 μM)
1 | COc1c(Nc2cc3c(cn2)N(C)C(=O)c2ccccc2N3C)cccc1C(=O)O [Compound 9] | < 6.30 | ≤ 35 | ≤ 35 | E (E is ≦35%) | ≤ 35 | E (E is ≦35%) | ≤ 35 | ≤ 35 | E (E is ≦35%) | < 70 | – | – | – | – | – | – | – | –
2 | CCOc1cc(C(=O)N2CC[C@@H](NC)C2)ccc1Nc1cc2c(cn1)N(C)C(=O)c1ccccc1N2C [Compound 26] | ≥ 7.30 | – | – | – | – | – | – | – | – | > 85 | 75 to 90 | ≤ 35 | E (E is ≦35%) | ≤ 35 | E (E is ≦35%) | ≤ 35 | ≤ 35 | E (E is ≦35%)
3 | CCN(CC)CCNC(=O)c1cccc(Nc2cc3c(cn2)N(C)C(=O)c2ccccc2N3C)c1OC [Compound 29] | 6.30 to 7.00 | 50 to 75 | ≤ 35 | E (E is ≦35%) | ≤ 35 | E (E is ≦35%) | ≤ 35 | ≤ 35 | E (E is ≦35%) | < 70 | – | – | – | – | – | – | – | –
4 | CN1C(=O)c2ccccc2N(C)c2cc(N[C@H]3CC[C@H](O)CC3)ncc21 [Compound 33, 3-((1r,4r)-4-hydroxycyclohexylamino)-5,11-dimethyl-5H-benzo[e]pyrido[3,4-b][1,4]diazepin-10(11H)-one] | 6.30 to 7.00 | 75 to 90 | ≤ 35 | E (E is ≦35%) | ≤ 35 | E (E is ≦35%) | ≤ 35 | ≤ 35 | E (E is ≦35%) | < 70 | – | – | – | – | – | – | – | –

The next lines start with the values.

Row | pIC50 [1] | inhibition at 1 µM [1] [%] | inhibition at 1 µM [2] [%] | Kinase inhibition % at indicated screening concentration: AurB or AurC ([3]; screening concentration 1.0 μM) | inhibition at 1 µM [4] [%] | Kinase inhibition % at indicated screening concentration: AMPKa1 or AMPKa2 ([5]; screening concentration 1.0 μM) | inhibition at 1 µM [6] [%] | inhibition at 1 µM [7] [%] | Kinase inhibition % at indicated screening concentration: ABL or ARG ([8]; screening concentration 1.0 μM) | inhibition at 10 µM [9] [%] | inhibition at 0.1 µM [1] [%] | inhibition at 0.1 µM [2] [%] | Kinase inhibition % at indicated screening concentration: AurB or AurC ([3]; screening concentration 0.1 μM) | inhibition at 0.1 µM [4] [%] | Kinase inhibition % at indicated screening concentration: AMPKa1 or AMPKa2 ([5]; screening concentration 0.1 μM) | inhibition at 0.1 µM [6] [%] | inhibition at 0.1 µM [7] [%] | Kinase inhibition % at indicated screening concentration: ABL or ARG ([8]; screening concentration 0.1 μM) | Structure (SMILES)
5 | < 6.30 | 35 to 50 | ≤ 35 | E (E is ≦35%) | ≤ 35 | E (E is ≦35%) | ≤ 35 | ≤ 35 | E (E is ≦35%) | < 70 | – | – | – | – | – | – | – | – | CCOc1cc(C(=O)Nc2ccncc2)ccc1Nc1cc2c(cn1)N(C)C(=O)c1ccccc1N2C [Compound 7]
6 | ≥ 7.30 | – | – | – | – | – | – | – | – | 70 to 85 | 75 to 90 | ≤ 35 | E (E is ≦35%) | ≤ 35 | E (E is ≦35%) | ≤ 35 | ≤ 35 | E (E is ≦35%) | CCOc1cc(C(=O)N2CCC(NC3CC3)C2)ccc1Nc1cc2c(cn1)N(C)C(=O)c1ccccc1N2C (stereo not drawn) [Compound 20]
7 | < 6.30 | 35 to 50 | ≤ 35 | E (E is ≦35%) | ≤ 35 | E (E is ≦35%) | ≤ 35 | ≤ 35 | E (E is ≦35%) | < 70 | – | – | – | – | – | – | – | – | CN1C(=O)c2ccccc2N(C)c2cc(NC3CCC(C(=O)O)CC3)ncc21 (stereo not drawn) [Compound 23]
8 | < 6.30 | 35 to 50 | ≤ 35 | E (E is ≦35%) | ≤ 35 | E (E is ≦35%) | ≤ 35 | ≤ 35 | E (E is ≦35%) | < 70 | – | – | – | – | – | – | – | – | CN1C(=O)c2ccccc2N(C)c2cc(N[C@H]3CC[C@H](Nc4ncccn4)CC3)ncc21 [Compound 47]
9 | 6.30 to 7.00 | 50 to 75 | ≤ 35 | E (E is ≦35%) | ≤ 35 | E (E is ≦35%) | ≤ 35 | ≤ 35 | E (E is ≦35%) | < 70 | – | – | – | – | – | – | – | – | CCOc1cc(C(=O)NC(CO)CO)ccc1Nc1cc2c(cn1)N(C)C(=O)c1ccccc1N2C [Compound 48]
